Where “and” joins values, the source holds several entries; their conditions need not be identical. Equal entries are not always repeated. Where two headings read alike, the source gives them in different places.
What was measured:
[1] = molecular target: T1, VCB: PROTAC: SMARCA2^BD ternary complex (Homo sapiens, UniProt P51531); assay: TR-FRET ternary complex affinity and cooperativity, SMARCA2; assay type: binding
T1 construct: P51531-2, residues 1373-1493 with additional N-terminal SM residues; GST (TEV site) (N); His6 (TEV site) (N, cleaved yes); made in house; host or cells: SMARCA2^BD: Escherichia coli BL21(DE3)

[2] = test system: NCI-H1568 cells; assay: Cell viability assay (CellTiter Glo) in NCI-H1568; assay type: cell-based, human; details: for EC50: read-out: EC50 cell proliferation (CellTiter Glo); for IC50: NCI-H1568, (18h), CellTiter Glo, individual replicates, read-out: NCI-H1568 (18h) CTG
Procedure: 500–2000 cells were seeded in white, clear bottom 96-well plates (Corning or Perkin Elmer) in 180–200 µl medium per well. The next day, compounds were added using a digital dispenser and a T0 sample was measured for reference. […], and viability (luminescence) was measured using CellTiter Glo or CellTiter Glo 2.0 (Promega) according to manufacturer’s instructions after equilibrating cells and reagents at room temperature and 10–20 min incubation time while shaking.

[3] = molecular target: T2, PBRM1 BD (Homo sapiens, UniProt Q86U86); assay: TR-FRET binary and ternary (PROTAC + VCB) affinity, PBRM1 bromodomain; assay type: binding; details: individual replicates
T2 construct: GST (TEV site) (N); made in house; host or cells: Escherichia coli BL21(DE3)

[4] = molecular target: SMARCA4 (Homo sapiens, UniProt P51532); assay: SMARCA4 capillary electrophoresis protein assay in RKO cells; assay type: cell-based; parameters: endogenous in cells; host or cells: RKO, HCT116, LU99, HCC-364, HCT-15, HCC4006, SK-N-AS; details: mean ± SD; for Dmax: RKO
Procedure: 130,000–200,000 cells were seeded in 24-well plates and incubated until settled down or overnight. Compounds were dissolved in DMSO and added to cells in indicated concentrations using a digital dispenser following an optional media change. Cells were incubated for 4 or 18 h as indicated. For SMARCA2/4 half-life determination, 150,000 or 200,000 cells were seeded in 24-well plates. The next day, 50 µg/ml cycloheximide (Sigma) was added and cells were incubated for 1–24 h. For SMARCA2/4 re-synthesis measurements, 200,000 cells were seeded in 24-well plates. The next day, 100 nM compound 6 was added for 4 h to degrade SMARCA2/4, and a sample was taken as baseline for normalisation. To allow re-synthesis, a VHL binder (compound 32, 25 or 50 µM) was then added for 3 or 24 h. Medium was removed, cells were washed with PBS and lysed with 80 µl Lysis Buffer (MSD Tris Lysis Buffer (#R60TX-2) + Halt Inhibitor Cocktail (100x) + Benzonase 0.5 µL/ml). Samples were frozen at −80 °C and thawed at room temperature before use. Samples were transferred to a V-bottom plate and insoluble debris was pelleted by centrifugation for 5 min at maximum speed. The supernatant was transferred to a fresh plate. Master Mix and Ladder were prepared according to manufacturer’s instructions for 12–230 kDa Wes Separation Module, 8 × 25 capillary cartridges, Protein Simple #SM-W004 with Anti-Rabbit Detection Module for Wes, Peggy Sue or Sally Sue, Protein Simple #DM-001. 4.8 µl lysate were mixed with 1.2 µl Master Mix to achieve a protein concentration of ~0.5 µg/µl. Antibodies were diluted in Antibody Diluent II (SMARCA2 Sigma #HPA029981 RRID:AB_10602406 1:25–100, SMARCA4 Cell Signalling #49360 clone D1Q7F RRID:AB_2728743 1:15–120 or Abcam #ab110641 clone EPNCIR111A RRID:AB_10861578 1:60, GAPDH Abcam #ab9485 RRID:AB_307275 1:250). Wes plates were prepared and run according to manufacturer’s instructions. Proteins were quantified with accompanying Compass Software. SMARCA2/4 protein levels were normalised to GAPDH. […] Where applicable, curves were fitted using a 4-parametric logistic model.

[5] = molecular target: SMARCA2 (Homo sapiens, UniProt P51531); assay: Imaging-based SMARCA2 protein assay in RKO cells; assay type: cell-based; parameters: endogenous in cells; host or cells: RKO, NCI-H1568, A549, HCT116, LU99, HCC-364, HCT-15, HCC4006, SK-N-AS; details: individual replicates
Procedure: 1250 cells per well in 60 µl medium were plated in flat bottom, poly-lysin coated 384-well plates (CellCarrier Ultra, Perkin Elmer). The next day, test compounds (10 µl of serial dilutions) and DMSO controls were diluted in DMEM medium such that the final DMSO content was <1% or were added using an ultrasound dispensing system. 4 wells were reserved for a background measurement. […] After aspirating the fixing solution, the cells were washed once with 25 µl PBS. 25 µl of blocking buffer (10% goat serum in PBS) was added and cells were incubated for 30 min, then washed once with PBS. […] Cells were again washed once with PBS. […] The cell layer was then washed once with 25 µl PBS, the wells were filled with 25 µl PBS and the plates were sealed with an adhesive sheet. They were then imaged on the Opera Phoenix (mean intensity in the nucleus). […] EC50 values were computed using a 4-parametric logistic model.

[6] = TR-FRET competition for SMARCA2BD, without VCB, mean ± SD, read-out: TR-FRET SMARCA2BD EC50
[7] = binary, PROTAC alone, individual replicates, read-out: SMARCA2 BD EC50
[8] = PROTAC + VCB, read-out: Ternary PBRM1 BD EC50 (PROTAC + VCB)
[9] = binary, PROTAC alone, read-out: PBRM1 EC50
[10] = 4h, read-out: RKO (4h) SMARCA2 DC50
[11] = 18h, read-out: RKO (18h) SMARCA2 DC50

T1 sequence (P51531 with tags, fused parts or gaps isoform P51531-2): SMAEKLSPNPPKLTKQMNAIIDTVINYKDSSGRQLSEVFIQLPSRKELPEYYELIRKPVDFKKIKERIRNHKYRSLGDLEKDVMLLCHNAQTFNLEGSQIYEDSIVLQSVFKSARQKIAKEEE
SMARCA2, sequence (P51531 whole entry): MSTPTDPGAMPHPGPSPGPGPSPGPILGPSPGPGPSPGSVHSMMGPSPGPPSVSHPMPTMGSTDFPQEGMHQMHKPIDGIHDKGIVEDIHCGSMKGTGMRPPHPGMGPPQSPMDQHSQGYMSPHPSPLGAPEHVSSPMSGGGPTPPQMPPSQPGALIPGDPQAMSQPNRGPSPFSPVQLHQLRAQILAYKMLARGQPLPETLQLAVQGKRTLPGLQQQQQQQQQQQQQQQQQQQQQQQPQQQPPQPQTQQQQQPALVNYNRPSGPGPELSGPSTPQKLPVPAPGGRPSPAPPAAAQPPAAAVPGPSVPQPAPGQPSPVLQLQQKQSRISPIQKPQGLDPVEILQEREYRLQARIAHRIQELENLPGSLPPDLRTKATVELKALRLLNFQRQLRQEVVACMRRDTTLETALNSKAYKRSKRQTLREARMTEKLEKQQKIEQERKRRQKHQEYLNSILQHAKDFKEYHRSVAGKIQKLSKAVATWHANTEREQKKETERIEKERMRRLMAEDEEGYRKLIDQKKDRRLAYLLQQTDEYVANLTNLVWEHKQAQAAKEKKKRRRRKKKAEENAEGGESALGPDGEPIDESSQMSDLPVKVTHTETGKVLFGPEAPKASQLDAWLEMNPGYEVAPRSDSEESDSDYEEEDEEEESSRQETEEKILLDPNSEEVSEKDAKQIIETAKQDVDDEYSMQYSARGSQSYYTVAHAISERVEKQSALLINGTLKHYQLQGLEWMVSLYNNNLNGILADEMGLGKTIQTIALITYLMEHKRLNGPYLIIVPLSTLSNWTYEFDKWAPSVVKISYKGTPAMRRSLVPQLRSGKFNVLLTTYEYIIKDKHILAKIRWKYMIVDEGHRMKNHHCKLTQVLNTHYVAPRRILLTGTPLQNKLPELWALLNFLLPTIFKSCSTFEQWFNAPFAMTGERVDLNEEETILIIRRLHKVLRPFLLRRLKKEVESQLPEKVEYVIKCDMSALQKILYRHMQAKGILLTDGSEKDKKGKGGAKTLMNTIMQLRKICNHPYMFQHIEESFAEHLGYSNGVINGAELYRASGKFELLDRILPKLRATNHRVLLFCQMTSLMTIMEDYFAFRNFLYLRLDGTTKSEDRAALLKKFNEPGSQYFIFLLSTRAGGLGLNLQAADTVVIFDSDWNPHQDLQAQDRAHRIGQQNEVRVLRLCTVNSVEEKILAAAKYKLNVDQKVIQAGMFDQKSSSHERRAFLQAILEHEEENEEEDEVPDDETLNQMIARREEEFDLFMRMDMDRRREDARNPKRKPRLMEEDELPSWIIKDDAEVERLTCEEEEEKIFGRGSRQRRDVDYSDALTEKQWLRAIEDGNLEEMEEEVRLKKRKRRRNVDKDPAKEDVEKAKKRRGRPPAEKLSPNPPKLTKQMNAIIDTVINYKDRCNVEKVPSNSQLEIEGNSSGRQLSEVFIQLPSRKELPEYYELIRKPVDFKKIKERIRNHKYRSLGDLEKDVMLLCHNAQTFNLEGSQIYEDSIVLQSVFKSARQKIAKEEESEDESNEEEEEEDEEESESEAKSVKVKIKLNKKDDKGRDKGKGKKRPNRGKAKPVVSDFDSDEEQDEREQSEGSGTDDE
SMARCA4, sequence (P51532 whole entry): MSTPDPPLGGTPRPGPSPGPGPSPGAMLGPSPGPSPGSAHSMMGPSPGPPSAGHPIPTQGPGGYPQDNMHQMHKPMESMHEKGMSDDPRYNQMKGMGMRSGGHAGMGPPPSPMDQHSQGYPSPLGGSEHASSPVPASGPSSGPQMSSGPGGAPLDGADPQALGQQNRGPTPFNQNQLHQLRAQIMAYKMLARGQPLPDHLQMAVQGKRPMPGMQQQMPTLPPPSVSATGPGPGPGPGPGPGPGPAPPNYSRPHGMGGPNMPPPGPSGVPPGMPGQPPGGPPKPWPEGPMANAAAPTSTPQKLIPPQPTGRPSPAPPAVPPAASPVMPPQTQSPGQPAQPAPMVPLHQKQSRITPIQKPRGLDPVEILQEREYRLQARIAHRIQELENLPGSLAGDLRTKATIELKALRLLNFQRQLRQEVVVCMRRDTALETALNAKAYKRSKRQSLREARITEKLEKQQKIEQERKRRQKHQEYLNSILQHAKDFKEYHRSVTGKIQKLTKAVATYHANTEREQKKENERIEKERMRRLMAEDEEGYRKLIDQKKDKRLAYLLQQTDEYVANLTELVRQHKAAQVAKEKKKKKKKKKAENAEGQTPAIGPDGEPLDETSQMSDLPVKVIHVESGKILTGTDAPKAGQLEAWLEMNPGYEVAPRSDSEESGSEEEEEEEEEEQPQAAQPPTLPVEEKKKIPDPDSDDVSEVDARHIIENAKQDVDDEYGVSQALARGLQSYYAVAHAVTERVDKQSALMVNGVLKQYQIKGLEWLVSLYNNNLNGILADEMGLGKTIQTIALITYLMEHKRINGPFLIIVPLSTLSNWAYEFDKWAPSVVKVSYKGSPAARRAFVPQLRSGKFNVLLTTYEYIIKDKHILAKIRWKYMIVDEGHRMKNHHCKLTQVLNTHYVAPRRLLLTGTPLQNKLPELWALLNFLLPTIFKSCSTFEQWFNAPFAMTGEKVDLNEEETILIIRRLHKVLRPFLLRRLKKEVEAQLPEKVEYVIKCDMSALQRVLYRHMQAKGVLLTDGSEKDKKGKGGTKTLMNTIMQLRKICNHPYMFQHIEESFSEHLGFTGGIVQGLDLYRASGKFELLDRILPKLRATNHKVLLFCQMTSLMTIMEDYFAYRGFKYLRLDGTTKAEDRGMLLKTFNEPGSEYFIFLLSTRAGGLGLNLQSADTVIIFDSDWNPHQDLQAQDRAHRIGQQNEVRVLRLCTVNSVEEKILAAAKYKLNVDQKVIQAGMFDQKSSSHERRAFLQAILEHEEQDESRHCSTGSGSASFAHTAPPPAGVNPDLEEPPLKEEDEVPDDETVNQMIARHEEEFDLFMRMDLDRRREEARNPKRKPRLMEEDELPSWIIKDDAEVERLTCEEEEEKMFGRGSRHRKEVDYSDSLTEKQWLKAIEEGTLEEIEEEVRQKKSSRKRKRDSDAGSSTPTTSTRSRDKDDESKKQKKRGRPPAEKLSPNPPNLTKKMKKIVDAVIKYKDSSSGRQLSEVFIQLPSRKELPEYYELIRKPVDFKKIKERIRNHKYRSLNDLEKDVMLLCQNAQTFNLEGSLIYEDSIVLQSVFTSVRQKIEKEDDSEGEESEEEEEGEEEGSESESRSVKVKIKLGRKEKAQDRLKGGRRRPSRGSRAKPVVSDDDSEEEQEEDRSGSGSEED

Row | Structure (SMILES) | EC50 [1, 6] [nM] | EC50 [1, 7] | EC50 ([2]; Homo sapiens, NCI-H1568, […]) [nM] | EC50 [3, 8] | EC50 [3, 9] | DC50 ([4]; RKO (4 h)) [nM] | DC50 ([4]; RKO (18 h)) [nM] | Dmax ([4]; RKO (18 h)) [%] | DC50 [5, 10] | DC50 [5, 11] | IC50 [2] | Dmax ([4]; RKO (4 h)) [%] | EC50 ([3]; PBRM1 EC50, binary, PROTAC alone) | EC50 ([3]; Ternary PBRM1 BD EC50 (PROTAC + VCB), PROTAC + VCB) | EC50 ([2]; NCI-H1568 ([…]), mean ± SD) [nM]
1 | CN1CCC(c2ccc3c(c2)n(C2CCCC2)c2nc(=O)c4c(Br)cccc4n32)CC1 [compound 3] | 48 ± 17 | 41.5 nM (2×) and 50.5 nM (2×) and 46.7 nM (2×) and 58.6 nM (2×) and 54.9 nM and 55.3 nM (2×) and 61.9 nM and 60.8 nM and 59.4 nM and 56.4 nM (2×) and 58.5 nM and 55.9 nM and 44.1 nM (3×) and 66.1 nM and 65.6 nM and 59.3 nM and 60.7 nM and 64.2 nM and 61.1 nM (2×) and 63.1 nM (2×) and 72.4 nM and 76.3 nM and 46.2 nM (2×) and 47.7 nM (2×) and 84.8 nM and 89.7 nM and 32 nM and 34.9 nM and 57.7 nM and 57.6 nM and 55.4 nM and 26.3 nM and 29.8 nM and 46.1 nM and 26.7 nM and 39.1 nM and 38.8 nM (2×) and 42.6 nM and 42.2 nM and 43 nM and 27.6 nM and 28.3 nM and 27.5 nM (2×) and 46 nM and 60.6 nM and 42.3 nM and 49.5 nM (2×) and 49.3 nM and 42.8 nM and 48.8 nM and 46.3 nM (2×) and 49.7 nM and 47.2 nM (2×) and 49 nM (2×) and 50.2 nM and 49.2 nM (3×) and 51.2 nM and 50.1 nM (2×) and 51.1 nM and 50.4 nM and 52.4 nM (2×) and 52.5 nM (2×) and 52 nM (2×) and 56.1 nM and 68 nM and 55.7 nM and 52.1 nM and 60.9 nM and 51.8 nM and 47 nM and 47.4 nM and 48.2 nM and 102 nM (2×) and 53.7 nM and 54.7 nM and 56.6 nM (2×) and 44.3 nM (2×) and 47.5 nM and 101 nM and 53.5 nM and 64.4 nM and 66.2 nM and 65.5 nM and 64.6 nM and 64.8 nM and 92.1 nM and 55.6 nM and 55.5 nM and 112 nM and 107 nM and 59.8 nM and 54.4 nM and 32.2 nM and 41.9 nM and 44.7 nM (2×) and 30.9 nM and 79.5 nM and 33.5 nM and 26.9 nM and 33.6 nM and 39.7 nM and 36.7 nM and 36.8 nM and 37.3 nM and 38.4 nM and 51.3 nM and 42.7 nM and 45.1 nM and 46.5 nM and 157 nM and 52.2 nM | 1260 | 49.4 nM and 29.7 nM (2×) and 21.8 nM and 18 nM and 21.3 nM and 22.2 nM and 18.6 nM and 21.6 nM and 46 nM and 35.8 nM and 25 nM and 35.5 nM (2×) and 36.4 nM and 29.1 nM and 25.9 nM and 29.2 nM and 27.1 nM and 30.4 nM (2×) and 31.6 nM and 33.5 nM and 23 nM (2×) and 29.5 nM and 54.4 nM and 51.5 nM and 24 nM and 36.6 nM and 32.2 nM and 65.8 nM and 63.7 nM and 42.6 nM and 25.7 nM and 43.8 nM and 40.2 nM and 16.5 nM and 24.8 nM and 34.1 nM and 26.1 nM and 30.2 nM | 27.3 nM and 29.3 nM and 18.1 nM and 21.5 nM and 21.7 nM and 19.9 nM and 23.1 nM and 18.9 nM and 42.5 nM and 22.4 nM and 27 nM and 28.2 nM and 20.7 nM and 30.6 nM and 34 nM (3×) and 32.6 nM and 30.2 nM and 34.7 nM and 36.6 nM and 33.4 nM and 20.8 nM and 53.5 nM and 23.4 nM and 49.7 nM and 23 nM and 24 nM and 38.4 nM and 37.6 nM and 35 nM and 67.5 nM and 70.9 nM and 46.6 nM and 44.1 nM and 25.3 nM and 42.6 nM and 18.7 nM and 31.1 nM and 26.8 nM and 30.5 nM and 40.9 nM | > 25000 | 11400 | 82 ± 32 | > 25000 nM | 20000 nM and 24900 nM and 22400 nM |  |  |  |  | 
2 | Cc1ncsc1-c1ccc([C@H](COC(C)CN2CCC(c3ccc4c(c3)n(C3CCCC3)c3nc(=O)c5c(Br)cccc5n43)CC2)NC(=O)[C@@H]2C[C@@H](O)CN2C(=O)[C@@H](NC(=O)C2(F)CC2)C(C)(C)C)cc1 (some centres unmarked) [compound 9] | 143 ± 27 | 132 nM and 149 nM and 140 nM (2×) and 172 nM and 134 nM and 115 nM and 202 nM and 128 nM | 45 ± 51 | 6.04 nM and 5.66 nM and 5.49 nM and 5.75 nM and 6.81 nM and 13.2 nM and 4.82 nM | 31.7 nM and 35 nM and 40.8 nM and 29.8 nM and 31 nM | > 25000 | 1780 | 88 ± 16 | 11.4 nM and 10.4 nM and 9.77 nM and 18.8 nM | 4.73 nM and 4.97 nM and 4.9 nM and 3.53 nM | 48.2 nM and 116 nM and 16.6 nM |  |  |  | 
3 | Cc1ncsc1-c1ccc([C@H](COC(C)CN2CCC(c3ccc4c(c3)n(C3CCCC3)c3nc(=O)c5c(Br)cccc5n43)CC2)NC(=O)[C@@H]2C[C@@H](O)CN2C(=O)[C@@H](NC(=O)C2(N(C)C)CC2)C(C)(C)C)cc1 (some centres unmarked) [compound 10] | 150 ± 52 | 120 nM and 130 nM and 128 nM and 228 nM and 217 nM and 116 nM | 16 ± 7 | 6.43 nM and 7.96 nM and 8.03 nM and 9.7 nM | 30.5 nM and 31.7 nM and 30 nM | 83 ± 22 | 174 ± 72 | 68 ± 15 | 8.19 nM and 6.54 nM and 2.93 nM and 10.6 nM | 1.26 nM and 3.06 nM and 6.17 nM | 21.5 nM and 20 nM and 8.75 nM | 34 ± 6 |  |  | 
4 | Cc1ncsc1-c1ccc([C@H](CCCCCN2CCC(c3ccc4c(c3)n(C3CCCC3)c3nc(=O)c5c(Br)cccc5n43)CC2)NC(=O)[C@@H]2C[C@@H](O)CN2C(=O)[C@@H](NC(=O)C2(F)CC2)C(C)(C)C)cc1 [compound 11] | 123 ± 45 | 183 nM and 73.1 nM and 107 nM and > 400 nM and 65.7 nM and 113 nM and 145 nM and 121 nM and 105 nM and 125 nM and 146 nM and 228 nM and 144 nM | 7 ± 3 | 3.17 nM and 4.26 nM and 3.96 nM | 43.1 nM and 50 nM and 41.1 nM and 31.5 nM | 15 ± 9 | 12 ± 3 | 78 ± 11 | 1.71 nM and 0.766 nM and 2.04 nM and 3.68 nM | 0.942 nM and 1.07 nM and 0.993 nM and 0.885 nM | 8.72 nM and 10.4 nM and 5.64 nM and 9.09 nM and 2.95 nM and 6.31 nM | 53 ± 16 |  |  | 
5 | Cc1ncsc1-c1ccc([C@H](CC[C@H](C)CCN2CCC(c3ccc4c(c3)n(C3CCCC3)c3nc(=O)c5c(Br)cccc5n43)CC2)NC(=O)[C@@H]2C[C@H](O)CN2C(=O)[C@@H](NC(=O)C2(F)CC2)C(C)(C)C)cc1 [compound 12] | 203 ± 65 | 125 nM and 272 nM and 263 nM and 154 nM | 236 ± 175 |  |  | > 25000 | 5830 | 94 ± 7 | > 25000 nM | 10700 nM and 4780 nM and 8270 nM and > 25000 nM | 411 nM and 372 nM and 85.9 nM |  | 67.7 nM and 82.1 nM and 74.9 nM | 67.9 nM and 85.8 nM and 79.7 nM | 
6 | CN1CCN(c2nc(=O)c3c(Cl)cccc3o2)CC1 [compound 13] |  | > 10000 nM |  | > 10000 nM | > 10000 nM | > 25000 | > 25000 |  | > 25000 nM | > 25000 nM | > 10000 nM |  |  |  | > 10000
